Test results published in patent US9820966B2, “Stabilized statin formulations” (Cumberland Pharmaceuticals Inc., priority 2010, dated 2017).
Like-named read-outs stand apart in the source and are kept apart here.

Columns and labels:
[1] = Precipitation on dilution into water or saline; type: physicochemical
[2] = AS in propylene glycol and ethanol (4/1), pH 11.0; in 2 hours
Experimental: The sample was then vortexed, filtered, after which it was analyzed by HPLC.

[3] = Solubility in basic solutions without cyclodextrin (HPLC); conditions: Sample 1: 20 mg AS in 1 mL, 16.54 mM L-Arg; pH 10.71 with L-Arg (L-Arg alone)

Row | Structure (SMILES) | precipitation on dilution ([1]; Example 12 PG/ethanol/water sample adjusted to pH 7.5, diluted 1:1 into water) | precipitation on dilution ([1]; Example 12 PG/ethanol/water sample adjusted to pH 8.0, diluted 1:1 into water) | precipitation on dilution ([1]; anything less than 40% propylene glycol and 10% ethanol, diluted with normal saline) | precipitation on dilution ([1]; prepared in non-aqueous co-solvents and then diluted into saline) | precipitation on dilution ([1]; propylene glycol and ethanol (4/1), pH 11.0, diluted 1:3 in saline) | degradation (control solution of the same mixture (20% HPβ-CD, pH 8.47), 40° C. for 1 month) [%] | degradation (solubilized with HPβ-CD (20%, pH 8.47), lyophilized with manifold freeze dryer, 40° C. for 1 month) [%] | degradation (solubilized with HPβ-CD, diluted 1:1 into 8% sucrose, lyophilized with shelf freeze dryer, storage 1 month at 40° C.) | precipitation on dilution ([1]; 100% ethanol solution, diluted 1:1 with saline) | precipitation on dilution ([1]; 100% propylene glycol solution, diluted 1:1 with saline) | degradation [2] | resulting concentration [3] [mg/mL]
1 | CC(C)c1c(C(=O)Nc2ccccc2)c(-c2ccccc2)c(-c2ccc(F)cc2)n1CC[C@@H](O)C[C@@H](O)CC(=O)O [AS—Ca, atorvastatin calcium trihydrate] | precipitated | precipitated | precipitation | precipitate | precipitated | ~15.5 | ~3.5 | less than 0.1% |  |  |  | 
2 | CC(C)c1c(C(=O)Nc2ccccc2)c(-c2ccccc2)c(-c2ccc(F)cc2)n1CC[C@@H](O)C[C@@H](O)CC(=O)O [AS, Atorvastatin free acid] |  |  |  |  |  |  |  |  | precipitated | precipitated | approximately 50% | 1.91
